Measured values taken from patent US10428083B2, “Heterocyclylmethyl-thienouracile as antagonists of the adenosine-A2B-receptor” (BAYER PHARMA AKTIENGESELLSCHAFT, priority 2015, dated 2019).

target: human adenosine A2b receptor (Homo sapiens (Human), UniProt P29275); assay: Cellular in vitro reporter gene test for A2b receptor activity (CHO-K1, CRE-luciferase, NECA stimulation); assay type: cell-based; conditions: not given
Method in brief: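 CHO-K1 cells with CRE-driven luciferase; antagonists co-incubated with NECA at its EC50, determined in a pre-experiment on each test day. Luciferase read by luminescence 3 h after NECA addition.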

Sequence of human adenosine A2b receptor (P29275 whole entry): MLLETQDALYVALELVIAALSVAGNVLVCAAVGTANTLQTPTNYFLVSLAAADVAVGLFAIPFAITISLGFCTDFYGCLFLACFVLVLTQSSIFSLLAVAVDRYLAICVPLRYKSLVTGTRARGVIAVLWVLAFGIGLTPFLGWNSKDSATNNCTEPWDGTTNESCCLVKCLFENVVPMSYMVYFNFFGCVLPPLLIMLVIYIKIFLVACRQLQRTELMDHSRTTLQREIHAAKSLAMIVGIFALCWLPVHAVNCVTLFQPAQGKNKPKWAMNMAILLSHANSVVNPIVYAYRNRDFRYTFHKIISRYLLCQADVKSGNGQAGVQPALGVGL

Compound | IC50
Cc1c(CN2CCNC2=NC#N)sc2c1c(=O)n(C(C)C(F)(F)F)c(=O)n2CCC(F)(F)F (racemic) [Example 451, [1-{[5-Methyl-2,4-dioxo-3-(1,1,1-trifluoropropan-2-yl)-1-(3,3,3-trifluoropropyl)-1,2,3,4-tetrahydrothieno[2,3-d]pyrimidin-6-yl]methyl}imidazolidin-2-ylidene]cyanamide] | 10 nM

same assay, conditions: recombinant CHO-K1 cell line, CRE-luciferase reporter, antagonism of EC50 concentration of NECA; in some cases means of several determinations, rounded to two significant figures; read-out: A2b receptor IC50

Compound | IC50
COCCn1c(=O)n(CC(C)OC)c(=O)c2c(C)c(CN3CCNC3=O)sc21 (racemic) [Example 99, 1-(2-Methoxyethyl)-3-(2-methoxypropyl)-5-methyl-6-[(2-oxoimidazolidin-1-yl)methyl]thieno[2,3-d]pyrimidine-2,4(1H,3H)-dione] | 17 nM
CCn1c(=O)c2c(C)c(CN3CCNC3=O)sc2n(CCOC2CC2)c1=O [Example 178, 1-[2-(Cyclopropyloxy)ethyl]-3-ethyl-5-methyl-6-[(2-oxoimidazolidin-1-yl)methyl]thieno[2,3-d]pyrimidine-2,4(1H,3H)-dione] | 21 nM
Cc1c(CN2CCN(C)C2=S)sc2c1c(=O)n(CC(F)(F)F)c(=O)n2CCCF [Example 173, 1-(3-Fluoropropyl)-5-methyl-6-[(3-methyl-2-thioxoimidazolidin-1-yl)methyl]-3-(2,2,2-trifluoroethyl)thieno[2,3-d]pyrimidine-2,4(1H,3H)-dione] | 73 nM
COC(C)Cn1c(=O)c2c(C)c(CN3CCNC3=O)sc2n(CCC(F)(F)F)c1=O (racemic) [Example 412, 3-(2-Methoxypropyl)-5-methyl-6-[(2-oxoimidazolidin-1-yl)methyl]-1-(3,3,3-trifluoropropyl)thieno[2,3-d]pyrimidine-2,4(1H,3H)-dione] | 5.4 nM
C=CCCn1c(=O)c2c(C)c(CN3CCNC3=O)sc2n(CCOC)c1=O [Example 316, 3-(But-3-en-1-yl)-1-(2-methoxyethyl)-5-methyl-6-[(2-oxoimidazolidin-1-yl)methyl]thieno[2,3-d]pyrimidine-2,4(1H,3H)-dione] | 1.3 nM
COCCn1c(=O)n(CC(C)(C)OC)c(=O)c2c(C)c(CN3CCNC3=O)sc21 [Example 238, 1-(2-Methoxyethyl)-3-(2-methoxy-2-methylpropyl)-5-methyl-6-[(2-oxoimidazolidin-1-yl)methyl]thieno[2,3-d]pyrimidine-2,4(1H,3H)-dione] | 99 nM
COCCn1c(=O)c2c(C)c(CN3CCNC3=O)sc2n(CCOC)c1=O [Example 231, 1,3-Bis(2-methoxyethyl)-5-methyl-6-[(2-oxoimidazolidin-1-yl)methyl]thieno[2,3-d]pyrimidine-2,4(1H,3H)-dione] | 21 nM
CCOCCn1c(=O)c2c(C)c(CN3CCNC3=NC#N)sc2n(CCCF)c1=O [Example 453, [1-{[3-(2-Ethoxyethyl)-1-(3-fluoropropyl)-5-methyl-2,4-dioxo-1,2,3,4-tetrahydrothieno[2,3-d]pyrimidin-6-yl]methyl}imidazolidin-2-ylidene]cyanamide] | 72 nM
C=CCn1cnn(Cc2sc3c(c2C)c(=O)n(CC)c(=O)n3CCCF)c1=O [Example 350, 6-[(4-Allyl-5-oxo-4,5-dihydro-1H-1,2,4-triazol-1-yl)methyl]-3-ethyl-1-(3-fluoropropyl)-5-methylthieno[2,3-d]pyrimidine-2,4(1H,3H)-dione] | 210 nM
COCCn1c(=O)n(CC(C)(C)OC)c(=O)c2c(C)c(CN3CCNC3=S)sc21 [Example 172, 1-(2-Methoxyethyl)-3-(2-methoxy-2-methylpropyl)-5-methyl-6-[(2-thioxoimidazolidin-1-yl)methyl]thieno[2,3-d]pyrimidine-2,4(1H,3H)-dione] | 7.3 nM
CCOCCn1c(=O)n(CC(C)C)c(=O)c2c(C)c(CN3CCNC(=O)C3=O)sc21 [Example 271, 6-[(2,3-Dioxopiperazin-1-yl)methyl]-1-(2-ethoxyethyl)-3-isobutyl-5-methylthieno[2,3-d]pyrimidine-2,4(1H,3H)-dione] | 47 nM
CCn1c(=O)c2c(C)c(CN3CCNC3=S)sc2n(CCOC2CC2)c1=O [Example 138, 1-[2-(Cyclopropyloxy)ethyl]-3-ethyl-5-methyl-6-[(2-thioxoimidazolidin-1-yl)methyl]thieno[2,3-d]pyrimidine-2,4(1H,3H)-dione] | 12 nM

The remaining lines, values ahead:

IC50 | Compound
22 nM | Cc1c(CN2CCNC2=S)sc2c1c(=O)n(CC(C)C)c(=O)n2CC1CCO1 (single isomer, unassigned) [Example 147, 3-Isobutyl-5-methyl-1-(oxetan-2-ylmethyl)-6-[(2-thioxoimidazolidin-1-yl)methyl]thieno[2,3-d]pyrimidine-2,4(1H,3H)-dione]
190 nM | COCCn1c(=O)n(CC(F)(F)F)c(=O)c2c(C)c(CN3CCNC(=O)C3=O)sc21 [Example 486, 6-[(2,3-Dioxopiperazin-1-yl)methyl]-1-(2-methoxyethyl)-5-methyl-3-(2,2,2-trifluoroethyl)thieno[2,3-d]pyrimidine-2,4(1H,3H)-dione]
11 nM | Cc1c(CN2CCNC2=O)sc2c1c(=O)n(CC(F)(F)F)c(=O)n2CC1CCO1 (racemic) [Example 206, 5-Methyl-1-(oxetan-2-ylmethyl)-6-[(2-oxoimidazolidin-1-yl)methyl]-3-(2,2,2-trifluoroethyl)thieno[2,3-d]pyrimidine-2,4(1H,3H)-dione]
8.9 nM | Cc1c(Cn2cc[nH]c2=O)sc2c1c(=O)n(C(C)C)c(=O)n2CC1CCCO1 (racemic) [Example 247, 3-Isopropyl-5-methyl-6-[(2-oxo-2,3-dihydro-1H-imidazol-1-yl)methyl]-1-(tetrahydrofuran-2-ylmethyl)thieno[2,3-d]pyrimidine-2,4(1H,3H)-dione]
180 nM | COCCn1c(=O)c2c(C)c(Cn3nc[nH]c3=O)sc2n(CCC(F)(F)F)c1=O [Example 439, 3-(2-Methoxyethyl)-5-methyl-6-[(5-oxo-4,5-dihydro-1H-1,2,4-triazol-1-yl)methyl]-1-(3,3,3-trifluoropropyl)thieno[2,3-d]pyrimidine-2,4(1H,3H)-dione]
30 nM | Cc1c(Cn2[nH]ccc2=O)sc2c1c(=O)n(C(C)C)c(=O)n2CC1CCCO1 (racemic) [Example 134, 3-Isopropyl-5-methyl-6-[(5-oxo-2,5-dihydro-1H-pyrazol-1-yl)methyl]-1-(tetrahydrofuran-2-ylmethyl)thieno[2,3-d]pyrimidine-2,4(1H,3H)-dione]
68 nM | Cc1c(CN2CCNC(=O)C2=O)sc2c1c(=O)n(CC(F)(F)F)c(=O)n2CC1CCCO1 (single isomer, unassigned) [Example 488, 6-[(2,3-Dioxopiperazin-1-yl)methyl]-5-methyl-1-(tetrahydrofuran-2-ylmethyl)-3-(2,2,2-trifluoroethyl)thieno[2,3-d]pyrimidine-2,4(1H,3H)-dione]
9.7 nM | Cc1c(CN2CCNC2=NC#N)sc2c1c(=O)n(CC(C)(C)C)c(=O)n2CC1CCCO1 (single isomer, unassigned) [Example 447, [1-{[3-(2,2-Dimethylpropyl)-5-methyl-2,4-dioxo-1-(tetrahydrofuran-2-ylmethyl)-1,2,3,4-tetrahydrothieno[2,3-d]pyrimidin-6-yl]methyl}imidazolidin-2-ylidene]cyanamide]
270 nM | Cc1c(Cn2nc[nH]c2=O)sc2c1c(=O)n(C(C)C)c(=O)n2CC1CCCO1 (single isomer, unassigned) [Example 426, 3-Isopropyl-5-methyl-6-[(5-oxo-4,5-dihydro-1H-1,2,4-triazol-1-yl)methyl]-1-(tetrahydrofuran-2-ylmethyl)thieno[2,3-d]pyrimidine-2,4(1H,3H)-dione]
82 nM | Cc1c(Cn2nc[nH]c2=O)sc2c1c(=O)n(CC(F)(F)F)c(=O)n2CC1CCCO1 (racemic) [Example 434, 5-Methyl-6-[(5-oxo-4,5-dihydro-H-1,2,4-triazol-1-yl)methyl]-1-(tetrahydrofuran-2-ylmethyl)-3-(2,2,2-trifluoroethyl)thieno[2,3-d]pyrimidine-2,4(1H,3H)-dione]
38 nM | CCn1c(=O)c2c(C)c(CN3CCNC3=S)sc2n(CC2CCCCO2)c1=O (racemic) [Example 36, 3-Ethyl-5-methyl-1-(tetrahydro-2H-pyran-2-ylmethyl)-6-[(2-thioxoimidazolidin-1-yl)methyl]thieno[2,3-d]pyrimidine-2,4(1H,3H)-dione (racemate)]
2.2 nM | CCn1c(=O)c2c(C)c(CN3CCNC3=NC#N)sc2n(CC2CCCO2)c1=O (single isomer, unassigned) [Example 260, [1-{[3-Ethyl-5-methyl-2,4-dioxo-1-(tetrahydrofuran-2-ylmethyl)-1,2,3,4-tetrahydrothieno[2,3-d]pyrimidin-6-yl]methyl}imidazolidin-2-ylidene]cyanamide]
34 nM | Cc1c(CN2CCNC2=O)sc2c1c(=O)n(CC(F)F)c(=O)n2CC1CCO1 (racemic) [Example 216, 3-(2,2-Difluoroethyl)-5-methyl-1-(oxetan-2-ylmethyl)-6-[(2-oxoimidazolidin-1-yl)methyl]thieno[2,3-d]pyrimidine-2,4(1H,3H)-dione]
8.9 nM | Cc1c(CN2CCNC2=O)sc2c1c(=O)n(CC(C)C)c(=O)n2CC1CCCO1 (single isomer, unassigned) [Example 198, 3-Isobutyl-5-methyl-6-[(2-oxoimidazolidin-1-yl)methyl]-1-(tetrahydrofuran-2-ylmethyl)thieno[2,3-d]pyrimidine-2,4(1H,3H)-dione]
23 nM | COCCn1c(=O)c2c(C)c(CN3CCNC3=O)sc2n(CC2CCCO2)c1=O (racemic) [Example 233, 3-(2-Methoxyethyl)-5-methyl-6-[(2-oxoimidazolidin-1-yl)methyl]-1-(tetrahydrofuran-2-ylmethyl)thieno[2,3-d]pyrimidine-2,4(1H,3H)-dione]
79 nM | Cc1c(Cn2[nH]ccc2=O)sc2c1c(=O)n(CC(F)(F)F)c(=O)n2CC1CCCO1 (racemic) [Example 284, 5-Methyl-6-[(5-oxo-2,5-dihydro-1H-pyrazol-1-yl)methyl]-1-(tetrahydrofuran-2-ylmethyl)-3-(2,2,2-trifluoroethyl)thieno[2,3-d]pyrimidine-2,4(1H,3H)-dione]
